Test results reported in patent US9839614B2, “Nanoparticle and polymer formulations for thyroid hormone analogs, antagonists, and formulations and uses thereof” (NANOPHARMACEUTICALS LLC, priority 2009, dated 2017).

Columns and labels:
M21 cells = conditions: 20 ug/ml; 0, 5, and 10 Gy; cited from earlier work
SF763 glioblastoma cells = conditions: 85 μM, 16 hours at 37° C., cited from earlier work
[1] = tested on: chick chorioallantoic membrane (CAM) blood vessel branching; experiment: Chorioallantoic membrane (CAM) model of angiogenesis; assay type: in vivo
Protocol: In vivo neovascularization was examined by methods described previously. 9-12 Ten-day-old chick embryos were purchased from SPAFAS (Preston, Conn.) and incubated at 37° C. with 55% relative humidity. A hypodermic needle was used to make a small hole in the shell concealing the air sac, and a second hole was made on the broad side of the egg, directly over an avascular portion of the embryonic membrane that was identified by candling. A false air sac was created beneath the second hole by the application of negative pressure at the first hole, causing the CAM to separate from the shell. A window approximately 1.0 cm^2 was cut in the shell over the dropped CAM with a small-crafts grinding wheel (Dremel, division of Emerson Electric Co.), allowing direct access to the underlying CAM. […] Sterile disks of No. 1 filter paper (Whatman International) were pretreated with 3 mg/mL cortisone acetate and 1 mmol/L PTU and air dried under sterile conditions. Thyroid hormone, hormone analogs, FGF2 or control solvents, and inhibitors were then applied to the disks and the disks allowed to dry. The disks were then suspended in PBS and placed on growing CAMs. […] At 24 hours, the MAPK cascade inhibitor PD 98059 was also added to CAMs topically by means of the filter disks.
After incubation at 37° C. with 55% relative humidity for 3 days, the CAM tissue directly beneath each filter disk was resected from control and treated CAM samples. Tissues were washed 3× with PBS, placed in 35-mm Petri dishes (Nalge Nunc), and examined under an SV6 stereomicroscope (Zeiss) at X50 magnification. Digital images of CAM sections exposed to filters were collected using a 3-charge-coupled device color video camera system (Toshiba) and analyzed with Image-Pro software (Media Cybernetics). The number of vessel branch points contained in a circular region equal to the area of each filter disk were counted. One image was counted in each CAM preparation, and findings from 8 to 10 CAM preparations were analyzed for each treatment condition (thyroid hormone or analogs, FGF2, FGF2 antibody, PD 98059). In addition, each experiment was performed 3 times. The resulting angiogenesis index is the mean±SEM of new branch points.

ERK1/2 = experiment: MAPK activation in ECV304 cells (nuclear phosphorylated ERK1/2 immunoblot); assay type: cell-based; conditions: for effect on T4-induced ERK1/2 (MAPK) activation: PD 98059 30 μmol/L or CGP41251 100 nmol/L, 30 minutes before T4
Protocol: ECV304 endothelial cells were cultured in M199 medium with 0.25% hormone-depleted serum 13 for 2 days. […] Nuclear fractions were pre-pared from all samples by the method reported previously (see Li et al., Carcinogenesis 29:62-69 (2008)), the proteins separated by polyacrylamide gel electrophoresis, and transferred to membranes for immunoblotting with antibody to phosphorylated ERK 1/2.

FGF2 cDNA = experiment: RT-PCR of FGF2 in ECV304 cells; assay type: cell-based; conditions: T4 10^−7 mol/L, 6 to 48 hours
Protocol: RNA (1 μg) was subjected to reverse transcription-polymerase chain reaction (RT-PCR) using the Access RT-PCR system (Promega). Total RNA was reverse transcribed into cDNA at 48° C. for 45 minutes, then denatured at 94° C. for 2 minutes. Second-strand synthesis and PCR amplification were performed for 40 cycles with denaturation at 94° C. for 30 s, annealing at 60° C. for 60 s, and extension at 68° C. for 120 s, with final ex-tension for 7 minutes at 68° C. after completion of all cycles. PCR primers for FGF2 were as follows: FGF2 sense strand 5′-[…]-3′ (SEQ ID NO:1), antisense strand 5′ […]-3′ (SEQ ID NO:2); the length of the PCR product was 734 bp. Primers for GAPDH included the sense strand 5′-[…]-3′ (SEQ ID NO:3), and antisense strand 5′-[…]-3′ (SEQ ID NO:4); the length of the PCR product was 218 bp. […] The target bands of the gel were quantified using Lablmage software (Kapelan), and the value for [FGF2/GAPDH]X10 calculated for each time point.

[2] = estimated; cited from earlier work
glioblastoma (GBM) = conditions: mild hypothyroidism induced by PTU; cited from earlier work
[3] = tested on: Morris 7800 hepatoma neoplasms; conditions: PTU 0.1%; cited from earlier work
[4] = tested on: transplantable liver tumor; conditions: cited from earlier work
V-79 cells = conditions: reduced from 3.4; cited from earlier work
[5] = cited from earlier work
ECV304 endothelial cells = experiment: FGF2 release from ECV304 endothelial cells (ELISA); assay type: cell-based
Protocol: ECV304 endothelial cells were cultured in M199 medium supplemented with 10% fetal bovine serum. […] After 72 hours, the supernatants were harvested and assays for FGF performed without dilution using a commercial ELISA system (R&D Systems) (See Davis et al., Circ Res 94:1500-1506 (2004)).

In the case of “CNTO 95: human anti-αv integrin monoclonal antibody”, the “increase in sensitivity (in vitro apoptosis)” value (M21 cells) is given as 2 fold.

For `CC(C)[C@H]1C(=O)N[C@@H](CCCN=C(N)N)C(=O)NCC(=O)N[C@@H](CC(=O)O)C(=O)N[C@H](Cc2ccccc2)C(=O)N1C` [EMD121974], the “increase of α” value (SF763 glioblastoma cells) is given as 4.4 fold and the “α component in the LQ survival equation” value (SF763 glioblastoma cells; from approximately 0.04) is given as 0.18 Gy^−1.

For `N[C@@H](Cc1cc(I)c(Oc2cc(I)c(O)c(I)c2)c(I)c1)C(=O)O` [Compound T4, L-thyroxine], the “generation of new blood vessels from existing vessels promoted” value ([1]; 10^−7-10^−9M) was “two-to three-fold”, the “combined effect of sub-maximal hormone and growth factor” value ([1]; T4 0.05 μmol/L + FGF2 0.5 μg/mL) was “additive” and the stimulation of angiogenesis ([1]; T4, anti-FGF2 experiments (FIG. 5A)) was 1.5 fold. The “time of maximal level of nuclear phosphorylated ERK1/2” value (ERK1/2; T4 10^−7 mol/L) was 30 min, the “time to appearance of phosphorylated ERK1/2 in cell nuclei” value (ERK1/2; T4 10^−7 mol/L) was at most 15 min and the “FGF2 cDNA abundance corrected for GAPDH” value (FGF2 cDNA) was “increase in abundance of FGF2 cDNA”. For the same molecule, the “pKa, COOH (carboxylic acid) group” value [2] was about 2.0 and the “pKa, NH2 (amino) group” value [2] was “approximately 9.0”.

In the case of `CCCc1cc(=O)[nH]c(=S)[nH]1` [PTU, 6-N-propyl-2-thiouracil], the “improvement of duration of survival” value (glioblastoma (GBM)) is listed as 3 fold, the increase in survival [3] is listed as “approximately 1.3 fold” and the “time needed to grow from approximately 270 mm^3 to 900 mm^3” value ([4]; 10 Gy of x-rays plus 0.05% PTU, control 6.2, x-rays alone 11.2) is listed as 17.8 days. For the same molecule, the “tumor growth rate versus control” value ([4]; PTU alone) was “no difference in growth rate”.

In the case of `NC(=O)c1cccc(N)c1` [Compound 3AB, 3-aminobenzamide], the Dq value (V-79 cells) is listed as 1 Gy and the “inhibition of PLDR” value [5] is listed as about 70%.

With `COc1cccc(-c2cc(=O)c3ccccc3o2)c1N` [PD 98059] the “effect on T3 + T4 stimulated blood vessel branching” value ([1]; 3 μmol/L PD 98059) was “completely blocked”, the “effect on FGF2 stimulation of branch formation” value ([1]; PD 98059 with FGF2 1 μg/mL) was “effectively blocked” and the “FGF2 (pg/mL/10^6 cells)” value (ECV304 endothelial cells; T3 + PD 98059 (2 μmol/L)) was 28.4 ± 3.2 pg/mL/10^6 cells. For the same molecule, the “FGF2 (pg/mL/10^6 cells)” value (ECV304 endothelial cells; T3 + PD 98059 (20 μmol/L)) was 21.7 ± 3.5 pg/mL/10^6 cells, the “FGF2 (pg/mL/10^6 cells)” value (ECV304 endothelial cells; T4 + PD 98059 (2 μmol/L)) was 26.5 ± 4.5 pg/mL/10^6 cells and the “FGF2 (pg/mL/10^6 cells)” value (ECV304 endothelial cells; T4 + PD 98059 (20 μmol/L)) was 23.2 ± 4.8 pg/mL/10^6 cells. For the same molecule, the “effect on T4-induced ERK1/2 (MAPK) activation” value (ERK1/2) was “inhibited”.

In the case of `CO[C@@H]1[C@H](N(C)C(=O)c2ccccc2)C[C@H]2O[C@]1(C)n1c3ccccc3c3c4c(c5c6ccccc6n2c5c31)C(=O)NC4` [CGP41251], the “effect on T4-induced ERK1/2 (MAPK) activation” value (ERK1/2) is reported as “blocked the effect of the hormone on MAPK activation”.
